Measurements reported in ChEMBL document CHEMBL3785012, “Cell-penetrating conjugates of pentaglutamylated methotrexate as potential anticancer drugs against resistant tumor cells” (Eur J Med Chem, 2016).
Residues, ends and D or L forms follow the SMILES beside them. *: point of attachment. DAMPA = CN(Cc1cnc2nc(N)nc(N)c2n1)c1ccc(C(=O)*)cc1

Experiments:
MDA-MB-231 [1] = experiment: Cytostatic activity against human MDA-MB-231 cells preincubated for 3 hrs followed by serum treatment for 72 hrs measured on day 4 by MTT assay; format: functional, cell-based
MCF7 [2] = experiment: Cytostatic activity against human MCF7 cells preincubated for 3 hrs followed by serum treatment for 72 hrs measured on day 4 by MTT assay; format: functional, cell-based
MCF7 [3] = experiment: Drug uptake in human MCF7 cells at 1 uM preincubated for 90 mins followed by compound wash out and subsequent trypsin addition for 10 mins by 5 (6)-carboxy-fluorescein based flow cytometric analysis; format: ADME, cell-based; settings: mcf7, 10 min
MCF7 [4] = experiment: Drug uptake in human MCF7 cells at 5 uM preincubated for 90 mins followed by compound wash out and subsequent trypsin addition for 10 mins by 5 (6)-carboxy-fluorescein based flow cytometric analysis; format: ADME, cell-based; settings: mcf7, 10 min
MCF7 [5] = experiment: Drug uptake in human MCF7 cells at 10 uM preincubated for 90 mins followed by compound wash out and subsequent trypsin addition for 10 mins by 5 (6)-carboxy-fluorescein based flow cytometric analysis; format: ADME, cell-based; settings: mcf7, 10 min
MDA-MB-231 [6] = experiment: Drug uptake in human MDA-MB-231 cells at 1 to 10 uM preincubated for 90 mins followed by compound wash out and subsequent trypsin addition for 10 mins by 5 (6)-carboxy-fluorescein based flow cytometric analysis; format: ADME, cell-based; settings: mda-mb-231, 10 min
MCF7 [7] = experiment: Drug uptake in human MCF7 cells at 1 to 10 uM preincubated for 90 mins followed by compound wash out and subsequent trypsin addition for 10 mins by 5 (6)-carboxy-fluorescein based flow cytometric analysis; format: ADME, cell-based; settings: mcf7, 10 min

Row | SMILES | IC50 (MDA-MB-231 [1]) [µM] | IC50 (MCF7 [2]) [µM] | Flu intensity (MCF7 [3]) | Flu intensity (MCF7 [4]) | Flu intensity (MCF7 [5]) | Drug uptake (MDA-MB-231 [6]) | Drug uptake (MCF7 [7])
1 | N=C(N)NCCC[C@H](NC(=O)[C@H](CCCNC(=N)N)NC(=O)[C@H](CCCNC(=N)N)NC(=O)[C@H](CCCNC(=N)N)NC(=O)[C@H](CCCNC(=N)N)NC(=O)[C@H](CCCNC(=N)N)NC(=O)[C@H](CCCNC(=N)N)NC(=O)[C@@H](N)CCCNC(=N)N)C(=O)O | > 100 | 100 | 975 | < 8669 | < 52928 | Active | 
2 | CN(Cc1cnc2nc(N)nc(N)c2n1)c1ccc(C(=O)N[C@@H](CCC(=O)O)C(=O)N[C@@H](CCCNC(=N)N)C(=O)N[C@@H](CCCNC(=N)N)C(=O)N[C@@H](CCCNC(=N)N)C(=O)N[C@@H](CCCNC(=N)N)C(=O)N[C@@H](CCCNC(=N)N)C(=O)N[C@@H](CCCNC(=N)N)C(=O)N[C@@H](CCCNC(=N)N)C(=O)N[C@@H](CCCNC(=N)N)C(=O)O)cc1 | 100 | > 100 |  |  |  |  | 
3 | CC[C@H](C)[C@H](NC(=O)[C@H](CCCCN)NC(=O)[C@@H](NC(=O)[C@H](CCC(N)=O)NC(=O)[C@H](CCCNC(=N)N)NC(=O)CNC(=O)[C@H](CC(C)C)NC(=O)[C@H](Cc1ccccc1)NC(=O)CNC(=O)[C@H](CCC(=O)O)NC(=O)[C@H](CCC(=O)O)NC(=O)[C@H](CCC(=O)O)NC(=O)[C@H](CCC(=O)O)NC(=O)[C@H](CCC(=O)O)NC(=O)[C@H](CCC(=O)O)NC(=O)c1ccc(N(C)Cc2cnc3nc(N)nc(N)c3n2)cc1)[C@@H](C)CC)C(=O)N[C@@H](Cc1c[nH]c2ccccc12)C(=O)N[C@@H](Cc1ccccc1)C(=O)N[C@@H](CCC(N)=O)C(=O)N[C@@H](CC(N)=O)C(=O)N[C@@H](CCCNC(=N)N)C(=O)N[C@@H](CCCNC(=N)N)C(=O)N[C@@H](CCCCN)C(=O)N[C@@H](Cc1c[nH]c2ccccc12)C(=O)N[C@@H](CCCCN)C(=O)N[C@@H](CCCCN)C(=O)O ({DAMPA}-EEEEEEGFLGRQIKIWFQNRRKWKK-OH) | 0.4 | 0.3 |  |  |  | Active | Active
4 | CC(C)C[C@H](NC(=O)[C@H](Cc1ccccc1)NC(=O)CNC(=O)[C@H](CCC(=O)O)NC(=O)[C@H](CCC(=O)O)NC(=O)[C@H](CCC(=O)O)NC(=O)[C@H](CCC(=O)O)NC(=O)[C@H](CCC(=O)O)NC(=O)[C@H](CCC(=O)O)NC(=O)c1ccc(N(C)Cc2cnc3nc(N)nc(N)c3n2)cc1)C(=O)NCC(=O)N[C@@H](CCCNC(=N)N)C(=O)N[C@@H](CCCNC(=N)N)C(=O)N[C@@H](CCCNC(=N)N)C(=O)N[C@@H](CCCNC(=N)N)C(=O)N[C@@H](CCCNC(=N)N)C(=O)N[C@@H](CCCNC(=N)N)C(=O)N[C@@H](CCCNC(=N)N)C(=O)N[C@@H](CCCNC(=N)N)C(=O)O ({DAMPA}-EEEEEEGFLGRRRRRRRR-OH) | 100 | > 100 |  |  |  |  | 
5 | CC[C@H](C)[C@H](NC(=O)[C@H](CCCCN)NC(=O)[C@@H](NC(=O)[C@H](CCC(N)=O)NC(=O)[C@H](CCCNC(=N)N)NC(=O)[C@H](CCC(=O)O)NC(=O)[C@H](CCC(=O)O)NC(=O)[C@H](CCC(=O)O)NC(=O)[C@H](CCC(=O)O)NC(=O)[C@H](CCC(=O)O)NC(=O)[C@H](CCC(=O)O)NC(=O)c1ccc(N(C)Cc2cnc3nc(N)nc(N)c3n2)cc1)[C@@H](C)CC)C(=O)N[C@@H](Cc1c[nH]c2ccccc12)C(=O)N[C@@H](Cc1ccccc1)C(=O)N[C@@H](CCC(N)=O)C(=O)N[C@@H](CC(N)=O)C(=O)N[C@@H](CCCNC(=N)N)C(=O)N[C@@H](CCCNC(=N)N)C(=O)N[C@@H](CCCCN)C(=O)N[C@@H](Cc1c[nH]c2ccccc12)C(=O)N[C@@H](CCCCN)C(=O)N[C@@H](CCCCN)C(=O)O ({DAMPA}-EEEEEERQIKIWFQNRRKWKK-OH) | 0.1 | > 100 |  |  |  | Active | Active
6 | CN(Cc1cnc2nc(N)nc(N)c2n1)c1ccc(C(=O)N[C@@H](CCC(=O)O)C(=O)N[C@@H](CCC(=O)O)C(=O)N[C@@H](CCC(=O)O)C(=O)N[C@@H](CCC(=O)O)C(=O)N[C@@H](CCC(=O)O)C(=O)N[C@@H](CCC(=O)O)C(=O)N[C@@H](CCCNC(=N)N)C(=O)N[C@@H](CCCNC(=N)N)C(=O)N[C@@H](CCCNC(=N)N)C(=O)N[C@@H](CCCNC(=N)N)C(=O)N[C@@H](CCCNC(=N)N)C(=O)N[C@@H](CCCNC(=N)N)C(=O)N[C@@H](CCCNC(=N)N)C(=O)N[C@@H](CCCNC(=N)N)C(=O)O)cc1 ({DAMPA}-EEEEEERRRRRRRR-OH) | > 100 | > 100 |  |  |  | Active | Active
7 | CC[C@H](C)[C@H](NC(=O)[C@H](CCCCN)NC(=O)[C@@H](NC(=O)[C@H](CCC(N)=O)NC(=O)[C@H](CCCNC(=N)N)NC(=O)CNC(=O)[C@H](CC(C)C)NC(=O)[C@H](Cc1ccccc1)NC(=O)CNC(=O)[C@H](CCC(=O)O)NC(=O)c1ccc(N(C)Cc2cnc3nc(N)nc(N)c3n2)cc1)[C@@H](C)CC)C(=O)N[C@@H](Cc1c[nH]c2ccccc12)C(=O)N[C@@H](Cc1ccccc1)C(=O)N[C@@H](CCC(N)=O)C(=O)N[C@@H](CC(N)=O)C(=O)N[C@@H](CCCNC(=N)N)C(=O)N[C@@H](CCCNC(=N)N)C(=O)N[C@@H](CCCCN)C(=O)N[C@@H](Cc1c[nH]c2ccccc12)C(=O)N[C@@H](CCCCN)C(=O)N[C@@H](CCCCN)C(=O)O ({DAMPA}-EGFLGRQIKIWFQNRRKWKK-OH) | 5.5 | 13.9 |  |  |  | Active | Active
8 | CC(C)C[C@H](NC(=O)[C@H](Cc1ccccc1)NC(=O)CNC(=O)[C@H](CCC(=O)O)NC(=O)c1ccc(N(C)Cc2cnc3nc(N)nc(N)c3n2)cc1)C(=O)NCC(=O)N[C@@H](CCCNC(=N)N)C(=O)N[C@@H](CCCNC(=N)N)C(=O)N[C@@H](CCCNC(=N)N)C(=O)N[C@@H](CCCNC(=N)N)C(=O)N[C@@H](CCCNC(=N)N)C(=O)N[C@@H](CCCNC(=N)N)C(=O)N[C@@H](CCCNC(=N)N)C(=O)N[C@@H](CCCNC(=N)N)C(=O)O ({DAMPA}-EGFLGRRRRRRRR-OH) | 19.1 | 31.3 |  |  |  |  | 
9 | CC[C@H](C)[C@H](NC(=O)[C@H](CCCCN)NC(=O)[C@@H](NC(=O)[C@H](CCC(N)=O)NC(=O)[C@H](CCCNC(=N)N)NC(=O)[C@H](CCC(=O)O)NC(=O)c1ccc(N(C)Cc2cnc3nc(N)nc(N)c3n2)cc1)[C@@H](C)CC)C(=O)N[C@@H](Cc1c[nH]c2ccccc12)C(=O)N[C@@H](Cc1ccccc1)C(=O)N[C@@H](CCC(N)=O)C(=O)N[C@@H](CC(N)=O)C(=O)N[C@@H](CCCNC(=N)N)C(=O)N[C@@H](CCCNC(=N)N)C(=O)N[C@@H](CCCCN)C(=O)N[C@@H](Cc1c[nH]c2ccccc12)C(=O)N[C@@H](CCCCN)C(=O)N[C@@H](CCCCN)C(=O)O ({DAMPA}-ERQIKIWFQNRRKWKK-OH) | 12.9 | 40.2 |  |  |  |  | 
10 | CN(Cc1cnc2nc(N)nc(N)c2n1)c1ccc(C(=O)N[C@@H](CCC(=O)O)C(=O)O)cc1 [METHOTREXATE] | > 100 | 0.8 |  |  |  |  | 
